Measurements: US6403647B1, “Pulsed administration of compositions for the treatment of blood disorders” (priority 1996, dated 2002)

What was measured:
[1] = tested on: fetal globin; assay: Fetal globin production in erythroid progenitor colonies (Bfu-e), sickle cell anemia patient; type: cell-based, human; details: controls 48% of non-α globin
[2] = tested on: system A transport of amino acids; assay: Uptake of 3H-methyl-aminoisobutyric acid (MeAIB) into erythroblasts; type: cell-based; details: for amino acid (MeAIB) uptake / transport: 2.0 mM, relative to untreated fetal liver erythroid cells; for inhibition of MeAIB uptake: after 60 and 120 minutes
Method: Erythroblasts were tested for alterations in uptake of radio-labelled amino acid (^3H-methyl-aminoisobutyric acid; MeAIB) in the presence of AB (arginine butyrate), AMHCA (α-methylhydrocinnamic acid), PAA (phenoxyacetic acid), and IBT (isobutyramide), each at 2.0 mM.

[3] = tested on: fetal globin; assay: Proportion of fetal globin-expressing cells in culture, fluorescent antibodies, sickle cell patient; type: cell-based, human; details: 14 days, controls 40.7%
Method: In a fourth experiment, erythroid cells were obtained from a sickle cell patient. These cells were established in culture both with and without test a variety of test compounds. Cultures were incubated for 14 days in methylcellulose media with maximal concentrations of all hematopoietic growth factors (GM-CSF, SCF, EPO). Colonies were analyzed using fluorescent monoclonal antibodies against fetal globin to determine the proportion of erythroid cells that expressed fetal globin.

[4] = tested on: Bfu-e; assay: Erythroid colony (Bfu-e) proliferation with maximal growth factors, normal subject; type: cell-based, human; details: 0.2-0.5 mM where given
Source text: Erythroid cells were obtained, as described in Example 1, from a normal subject and cultured on semi-solid medium in the presence of a maximal amount of erythroid growth factors including IL-6, GM-CSF, SCF and EPO. Erythroid proliferation in the presence of these factors is expected to be maximal and, therefore, any increases observed would be significant.

[5] = tested on: human fetal liver cells; assay: Erythroid progenitor colony proliferation, fetal liver cells; type: cell-based; details: 0.2 mM, maximal growth factors, p<0.025
Method: In a third experiment, human fetal liver cells were also tested. As fetal cells are known not to respond to the presence of the growth factors, any increases observed are highly significant. Erythroid progenitor cultures were established from fetal liver and plated with maximal amounts of growth factors. To these plates were added; lane 1, 2-(4′-methoxyphenoxy) propionic acid; lane 2, phenoxyacetic acid; and lane 3, α-methylhydrocinnamic acid; all at a concentration of 0.2 mM.

[6] = DNA fragmentation assays (cell viability); type: cell-based
Source text: Normal cell viability, the viability of an untransformed or uninfected cell, can be determined from analyzing the effects of the composition on one or more biological processes of the cell. Detrimental interference with one or more of these cellular processes becomes significant when the process becomes abnormal. Examples of quantitatable and qualifiable biological processes include the processes of cell division, protein synthesis, nucleic acid (DNA or RNA) synthesis, nucleic acid (principally DNA) fragmentation and apoptosis. Others processes include specific enzyme activities, the activities of the cellular transportation systems such as the transportation of amino acids by system A (neutral), system B (acidic) or system C (basic), and the expression of a cell surface protein. […] Abnormal cell division, for example, can be mitosis which occurs too rapidly, as in a malignancy, or unstably, resulting in programmed cell death or apoptosis, detected by increased DNA degradation. The determination of abnormal cell viability can be made on comparison with untreated control cells. Compositions preferably increase normal cell viability. Increased cell viability can be determined by those of ordinary skill in the art using, for example, DNA fragmentation analysis. […] Determinations of increased or decreased viability can also be concluded from an analysis of the results of multiple different assays. Where multiple tests provide conflicting results, accurate conclusions can still be drawn by those of ordinary skill based upon the cell type, the correctness or correlation of the tests with actual conditions and the type of composition.
Patients with blood disorders are typically quite infirm with, for example, iron damaged organs and systems. Most treatments further tax the patient's already frail health in an effort to combat the disorder.

[7] = tested on: K562 human erythroleukemia cells; details: cited from earlier work
[8] = tested on: γ-globin expression; assay: γ-globin mRNA by RNase protection in erythroid cell cultures of normal individuals; type: cell-based, human; details: for x increase in % s: over ChFCS
Method: Fetal globin production was determined in erythroid progenitor cells cultured in the presence or absence of test compositions. Erythroid cells were purified from blood obtained from a normal individual . […] Erythroid cell cultures were established with the following conditions: IMDM methylcellulose media, erythropoietin (3 U/ml), the human subjects' mononuclear cells, 30% charcoal-absorbed fetal calf serum, and the test compounds at varying micromolar concentrations.
Compounds were tested for their ability to induce expression of fetal globin expression in erythroid cell cultures established from the peripheral blood of normal individuals. Colonies were harvested and assayed for globin mRNA following 14 days of culture. Each compound was tested in duplicate cultures from 2-4 individual human subjects. Globin expression was quantitated by RNase protection assay for % gamma globin as a fraction of total non-alpha globin (% gamma/gamma+beta globin mRNA).

CCC(C)(C)C(=O)O [2,2-dimethylbutyric acid]
increase in fetal globin over controls [1]: 24% | amino acid (MeAIB) uptake / transport [2]: moderate inhibition of transport | inhibition of MeAIB uptake [2]: somewhat less so | Increase in γ-Globin Expressing Cells ([3]; concentration not given): 70.1%

COc1ccc(OC(C)C(=O)O)cc1 (stereo not drawn) [2-(4′-methoxyphenoxy) propionic acid]
Bfu-e growth [4]: further increase Bfu-e growth | proliferation of colonies [5]: increased proliferation of colonies | amino acid (MeAIB) uptake / transport [2]: moderate inhibition of transport | inhibition of MeAIB uptake [2]: somewhat less so

CC(Oc1ccc(Cl)cc1)C(=O)O (stereo not drawn) [4-chlorophenoxy-2-propionic acid]
Bfu-e growth [4]: further increase Bfu-e growth | Increase in γ-Globin Expressing Cells ([3]; 0.5 mM): 59.7%

CCCC(=O)OCC [butyric acid ethyl ester]
DNA fragmentation in fragmentation assays [6]: reduce DNA fragmentation

CCCCCCCCCC(=O)O [caprate]
ability to increase fetal globin expression [7]: much less of an effect

CCCCCC(=O)[O-].CCCCCC(=O)[O-].[Ca+2] [caproate]
ability to increase fetal globin expression [7]: much less of an effect

CCCCCCCC(=O)O [caprylate]
ability to increase fetal globin expression [7]: much less of an effect

CCOC(=O)/C=C/C(=O)O [fumaric acid monoethyl ester]
amino acid (MeAIB) uptake / transport [2]: did not inhibit amino acid transport | Increase in γ-Globin Expressing Cells ([3]; concentration not given): 59.1%

CC(C)C(N)=O [isobutyramide]
cell viability in DNA fragmentation assays [6]: decrease cell viability

COCC(=O)O [methoxyacetic acid]
increase in fetal globin over controls [1]: 3%

O=C(CCCCCCC(=O)NO)NO [suberoyl bis hydroxamic acid, Suberoyl bis hydroxamic acid]
x increase in % s ([8]; 0.5 μM, group 1 (99-3a, 99-3b)): 1.6 x | γ/γ + β ([8]; 0.5 μM, group 1, subject 99-3a): 13.54% | γ/γ + β ([8]; 0.5 μM, group 1, subject 99-3b): 11.55% | γ/γ + β mean ([8]; 0.5 μM, group 1, subjects 99-3a, 99-3b): 12.55% | x increase in % s ([8]; 0.5 μM, group 2 (99-4, 99-5)): 0.9 x | γ/γ + β ([8]; 0.5 μM, group 2, subject 99-4): 6.25% | γ/γ + β ([8]; 0.5 μM, group 2, subject 99-5): 6.42% | γ/γ + β mean ([8]; 0.5 μM, group 2, subjects 99-4, 99-5): 6.34% | x increase in % s ([8]; 1 μM, group 1 (99-3a, 99-3b)): 1.3 x | γ/γ + β ([8]; 1 μM, group 1, subject 99-3a): 10.99% | γ/γ + β ([8]; 1 μM, group 1, subject 99-3b): 9.19% | γ/γ + β mean ([8]; 1 μM, group 1, subjects 99-3a, 99-3b): 10.09% | x increase in % s ([8]; 1 μM, group 2 (99-4, 99-5)): 1.2 x | γ/γ + β ([8]; 1 μM, group 2, subject 99-4): 8.46% | γ/γ + β mean ([8]; 1 μM, group 2, subject 99-4 only): 8.46% | x increase in % s ([8]; 1 μM, group 3 (99-6, 99-7, 99-10)): 1.5 x | γ/γ + β ([8]; 1 μM, group 3, subject 99-6): 5.41% | γ/γ + β ([8]; 1 μM, group 3, subject 99-7): 10.76% | γ/γ + β ([8]; 1 μM, group 3, subject 99-10): 6.92% | γ/γ + β mean ([8]; 1 μM, group 3, subjects 99-6, 99-7, 99-10): 7.70% | x increase in % s ([8]; 2 μM, group 1 (99-3a, 99-3b)): 2.9 x | γ/γ + β ([8]; 2 μM, group 1, subject 99-3a): 21.36% | γ/γ + β ([8]; 2 μM, group 1, subject 99-3b): 23.63% | γ/γ + β mean ([8]; 2 μM, group 1, subjects 99-3a, 99-3b): 22.50% | x increase in % s ([8]; 2 μM, group 2 (99-4, 99-5)): 1.5 x | γ/γ + β ([8]; 2 μM, group 2, subject 99-4): 9.92% | γ/γ + β ([8]; 2 μM, group 2, subject 99-5): 10.65% | γ/γ + β mean ([8]; 2 μM, group 2, subjects 99-4, 99-5): 10.29% | x increase in % s ([8]; 2 μM, group 3 (99-6, 99-7, 99-10)): 2.1 x | γ/γ + β ([8]; 2 μM, group 3, subject 99-6): 6.65% | γ/γ + β ([8]; 2 μM, group 3, subject 99-7): 15.75% | γ/γ + β ([8]; 2 μM, group 3, subject 99-10): 10.00% | γ/γ + β mean ([8]; 2 μM, group 3, subjects 99-6, 99-7, 99-10): 10.80% | x increase in % s ([8]; 3 μM, group 1 (99-3a, 99-3b)): 3.2 x | γ/γ + β ([8]; 3 μM, group 1, subject 99-3a): 24.90% | γ/γ + β ([8]; 3 μM, group 1, subject 99-3b): 23.72% | γ/γ + β mean ([8]; 3 μM, group 1, subjects 99-3a, 99-3b): 24.31% | x increase in % s ([8]; 3 μM, group 2 (99-4, 99-5)): 2.6 x | γ/γ + β ([8]; 3 μM, group 2, subject 99-4): 17.99% | γ/γ + β ([8]; 3 μM, group 2, subject 99-5): 17.89% | γ/γ + β mean ([8]; 3 μM, group 2, subjects 99-4, 99-5): 17.94% | x increase in % s ([8]; 4 μM, group 1 (99-3a, 99-3b)): 6.4 x | γ/γ + β ([8]; 4 μM, group 1, subject 99-3a): 48.57% | γ/γ + β ([8]; 4 μM, group 1, subject 99-3b): 50.66% | γ/γ + β mean ([8]; 4 μM, group 1, subjects 99-3a, 99-3b): 49.62% | x increase in % s ([8]; 4 μM, group 2 (99-4, 99-5)): 3.4 x | γ/γ + β ([8]; 4 μM, group 2, subject 99-4): 24.10% | γ/γ + β mean ([8]; 4 μM, group 2, subject 99-4 only): 24.10% | x increase in % s ([8]; 4 μM, group 3 (99-6, 99-7, 99-10)): 3.9 x | γ/γ + β ([8]; 4 μM, group 3, subject 99-6): 13.33% | γ/γ + β ([8]; 4 μM, group 3, subject 99-7): 30.45% | γ/γ + β ([8]; 4 μM, group 3, subject 99-10): 15.73% | γ/γ + β mean ([8]; 4 μM, group 3, subjects 99-6, 99-7, 99-10): 19.84% | x increase in % s ([8]; 4 μM, group 4 (99-10, 00-1, 00-3)): 1.7 x | γ/γ + β ([8]; 4 μM, group 4, subject 00-1): 4.82% | γ/γ + β ([8]; 4 μM, group 4, subject 00-3): 5.01% | γ/γ + β ([8]; 4 μM, group 4, subject 99-10): 11.38% | γ/γ + β mean ([8]; 4 μM, group 4, subjects 99-10, 00-1, 00-3): 7.07% | x increase in % s ([8]; 6 μM, group 3 (99-6, 99-7, 99-10)): 5.5 x | γ/γ + β ([8]; 6 μM, group 3, subject 99-6): 22.97% | γ/γ + β ([8]; 6 μM, group 3, subject 99-7): 31.51% | γ/γ + β ([8]; 6 μM, group 3, subject 99-10): 29.15% | γ/γ + β mean ([8]; 6 μM, group 3, subjects 99-6, 99-7, 99-10): 27.88% | x increase in % s ([8]; 6 μM, group 4 (99-10, 00-1, 00-3)): 2.7 x | γ/γ + β ([8]; 6 μM, group 4, subject 00-1): 9.46% | γ/γ + β ([8]; 6 μM, group 4, subject 00-3): 8.89% | γ/γ + β ([8]; 6 μM, group 4, subject 99-10): 16.34% | γ/γ + β mean ([8]; 6 μM, group 4, subjects 99-10, 00-1, 00-3): 11.56% | x increase in % s ([8]; 8 μM, group 3 (99-6, 99-7, 99-10)): 7.4 x | γ/γ + β ([8]; 8 μM, group 3, subject 99-6): 31.99% | γ/γ + β ([8]; 8 μM, group 3, subject 99-7): 44.02% | γ/γ + β ([8]; 8 μM, group 3, subject 99-10): 35.73% | γ/γ + β mean ([8]; 8 μM, group 3, subjects 99-6, 99-7, 99-10): 37.25% | x increase in % s ([8]; 8 μM, group 4 (99-10, 00-1, 00-3)): 4.4 x | γ/γ + β ([8]; 8 μM, group 4, subject 00-1): 12.88% | γ/γ + β ([8]; 8 μM, group 4, subject 00-3): 21.68% | γ/γ + β ([8]; 8 μM, group 4, subject 99-10): 21.37% | γ/γ + β mean ([8]; 8 μM, group 4, subjects 99-10, 00-1, 00-3): 18.64% | x increase in % s ([8]; 10 μM, group 4 (99-10, 00-1, 00-3)): 7.3 x | γ/γ + β ([8]; 10 μM, group 4, subject 00-1): 27.89% | γ/γ + β ([8]; 10 μM, group 4, subject 00-3): 31.25% | γ/γ + β ([8]; 10 μM, group 4, subject 99-10): 35.06% | γ/γ + β mean ([8]; 10 μM, group 4, subjects 99-10, 00-1, 00-3): 31.40% | x increase in % s ([8]; 12 μM, group 4 (99-10, 00-1, 00-3)): 10.8 x | γ/γ + β ([8]; 12 μM, group 4, subject 00-3): 45.69% | γ/γ + β ([8]; 12 μM, group 4, subject 99-10): 46.94% | γ/γ + β mean ([8]; 12 μM, group 4, subjects 99-10, 00-3): 46.32%

O=C(O)CSc1ccccc1 [thiophenoxyacetic acid]
increase in fetal globin over controls [1]: 38%

CC(=Cc1ccccc1)C(=O)O [α-methylcinnamic acid]
increase in fetal globin over controls [1]: 12%

diethyl butyric acid
amino acid (MeAIB) uptake / transport [2]: did not inhibit amino acid transport
